Laboratory results taken from ChEMBL document CHEMBL4765294, “Discovery and evaluation of new compounds targeting ribosomal protein S1 in antibiotic-resistant Mycobacterium Tuberculosis” (Eur J Med Chem, 2020).
Calls of active or inactive are those of the source. The calls are words filed in the database; no cut-off is given here.

system: Mycobacterium tuberculosis; assay: Binding affinity to Mycobacterium tuberculosis RpsA Ala438 deleted mutant C-terminal domain (285 to 476 residues) at 500 uM by STD based analysis

Row | Compound | Activity
1 | Cc1cccc(CNC(=O)CSc2nc3nc[nH]c3c(=O)[nH]2)c1 | Active
2 | Cc1ccc(CNC(=O)COc2cc(O)c3c(=O)cc(-c4ccccc4)oc3c2)cc1 | Active
3 | Cc1ccc(CNC(=O)CSc2nc3nc[nH]c3c(=O)[nH]2)cc1 | Active
4 | O=C(O)CSc1nc2nc[nH]c2c(=O)[nH]1 | Active
5 | CCOC(=O)CSc1nc2nc[nH]c2c(=O)[nH]1 | Active
6 | Cc1cccc(CNC(=O)COc2cc(O)c3c(=O)cc(-c4ccccc4)oc3c2)c1 | Active

system: Mycobacterium tuberculosis; assay: Binding affinity to Mycobacterium tuberculosis RpsA Ala438 deleted mutant C-terminal domain (285 to 476 residues) assessed as quenching rate constant by fluorescence quenching titration based analysis

Row | Compound | Kq
7 | Cc1cccc(CNC(=O)CSc2nc3nc[nH]c3c(=O)[nH]2)c1 | 2.54 10^12/M/s
8 | Cc1ccc(CNC(=O)COc2cc(O)c3c(=O)cc(-c4ccccc4)oc3c2)cc1 | 6.64 10^12/M/s
9 | Cc1ccc(CNC(=O)CSc2nc3nc[nH]c3c(=O)[nH]2)cc1 | 3.68 10^12/M/s
10 | O=C(O)CSc1nc2nc[nH]c2c(=O)[nH]1 | 1.91 10^12/M/s
11 | CCOC(=O)CSc1nc2nc[nH]c2c(=O)[nH]1 | 3.4 10^12/M/s
12 | Cc1cccc(CNC(=O)COc2cc(O)c3c(=O)cc(-c4ccccc4)oc3c2)c1 | 2.33 10^12/M/s

target: not listed separately; assay: Binding affinity to Mycobacterium tuberculosis RpsA Ala438 deleted mutant C-terminal domain (285 to 476 residues) assessed as dissociation constant by fluorescence quenching titration based analysis

Row | Compound | Kd
13 | Cc1cccc(CNC(=O)CSc2nc3nc[nH]c3c(=O)[nH]2)c1 | 4.67 µM
14 | Cc1ccc(CNC(=O)COc2cc(O)c3c(=O)cc(-c4ccccc4)oc3c2)cc1 | 1.64 µM
15 | CC(Sc1nc(N)cc(N)n1)C(=O)O (centres undefined) | 1.74 µM
16 | Cc1ccc(CNC(=O)CSc2nc3nc[nH]c3c(=O)[nH]2)cc1 | 8.5 µM
17 | O=C(O)CSc1nc2nc[nH]c2c(=O)[nH]1 | 5.11 µM
18 | CCOC(=O)CSc1nc2nc[nH]c2c(=O)[nH]1 | 0.31 µM
19 | Cc1cccc(CNC(=O)COc2cc(O)c3c(=O)cc(-c4ccccc4)oc3c2)c1 | 6.91 µM
